Several values for one entry are separate records, joined by “and”; a condition that tells them apart may be missing. Equal values may be shown once.
Columns and labels:
SRPK2 = SRPK2 (Homo sapiens, UniProt P78362); conditions: 1 μM; Run 1, Run 2
IRR/INSRR = IRR/INSRR (Homo sapiens, UniProt P14616); conditions: 1 μM; Run 1, Run 2
HIPK1 [1] = target: T1, HIPK1 (Homo sapiens, UniProt Q86Z02); experiment: biochemical; conditions: read-out: % enzyme activity, 1 μM; Run 1, Run 2
PKCnu/PRKD3 = target: T2, PKCnu/PRKD3 (Homo sapiens, UniProt O94806); experiment: biochemical; conditions: read-out: % enzyme activity, 1 μM; Run 1, Run 2
T2 sequence (O94806 1-890): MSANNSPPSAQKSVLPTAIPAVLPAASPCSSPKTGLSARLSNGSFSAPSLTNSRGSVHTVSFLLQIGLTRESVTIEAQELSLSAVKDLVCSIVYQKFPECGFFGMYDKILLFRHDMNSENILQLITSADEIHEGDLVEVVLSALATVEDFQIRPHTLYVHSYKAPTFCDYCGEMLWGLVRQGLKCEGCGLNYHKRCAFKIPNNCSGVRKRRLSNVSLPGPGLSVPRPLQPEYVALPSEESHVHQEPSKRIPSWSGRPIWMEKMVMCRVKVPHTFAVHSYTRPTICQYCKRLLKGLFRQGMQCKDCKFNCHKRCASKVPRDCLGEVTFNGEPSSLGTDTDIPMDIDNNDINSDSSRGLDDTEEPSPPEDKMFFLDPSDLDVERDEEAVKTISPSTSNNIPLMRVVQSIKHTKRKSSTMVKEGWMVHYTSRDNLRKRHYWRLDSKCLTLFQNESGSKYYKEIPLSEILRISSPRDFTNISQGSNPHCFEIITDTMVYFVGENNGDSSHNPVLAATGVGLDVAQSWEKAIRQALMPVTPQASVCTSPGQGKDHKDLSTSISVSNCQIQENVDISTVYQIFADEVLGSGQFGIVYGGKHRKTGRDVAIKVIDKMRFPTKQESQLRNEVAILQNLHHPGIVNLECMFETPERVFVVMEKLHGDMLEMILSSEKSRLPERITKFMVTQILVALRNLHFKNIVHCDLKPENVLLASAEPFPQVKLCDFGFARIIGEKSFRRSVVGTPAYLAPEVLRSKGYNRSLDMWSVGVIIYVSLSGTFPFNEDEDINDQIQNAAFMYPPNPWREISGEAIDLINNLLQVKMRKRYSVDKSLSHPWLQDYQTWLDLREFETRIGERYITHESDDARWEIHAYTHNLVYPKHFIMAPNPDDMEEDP

TTBK1 = TTBK1 (Homo sapiens, UniProt Q5TCY1); conditions: 1 μM; Run 1, Run 2
PAK3 = PAK3 (Homo sapiens, UniProt O75914); experiment: biochemical; conditions: read-out: % enzyme activity, 1 μM; Run 1, Run 2
FGFR2 = FGFR2 (Homo sapiens, UniProt P21802); conditions: 1 μM; Run 1, Run 2
STK33 = STK33 (Homo sapiens, UniProt Q9BYT3); conditions: 1 μM; Run 1, Run 2
HIPK1 [2] = target: T1, HIPK1; conditions: 1 μM; Run 1, Run 2
MLK3/MAP3K11 = MLK3/MAP3K11 (Homo sapiens, UniProt Q16584); experiment: biochemical; conditions: read-out: % enzyme activity, 1 μM; Run 1, Run 2
OSR1/OXSR1 = OSR1/OXSR1 (Homo sapiens, UniProt O95747); conditions: 1 μM; Run 1, Run 2
DYRK4 = target: T3, DYRK4 (Homo sapiens, UniProt Q9NR20); conditions: 1 μM; Run 1, Run 2
T3 sequence (Q9NR20 1-520): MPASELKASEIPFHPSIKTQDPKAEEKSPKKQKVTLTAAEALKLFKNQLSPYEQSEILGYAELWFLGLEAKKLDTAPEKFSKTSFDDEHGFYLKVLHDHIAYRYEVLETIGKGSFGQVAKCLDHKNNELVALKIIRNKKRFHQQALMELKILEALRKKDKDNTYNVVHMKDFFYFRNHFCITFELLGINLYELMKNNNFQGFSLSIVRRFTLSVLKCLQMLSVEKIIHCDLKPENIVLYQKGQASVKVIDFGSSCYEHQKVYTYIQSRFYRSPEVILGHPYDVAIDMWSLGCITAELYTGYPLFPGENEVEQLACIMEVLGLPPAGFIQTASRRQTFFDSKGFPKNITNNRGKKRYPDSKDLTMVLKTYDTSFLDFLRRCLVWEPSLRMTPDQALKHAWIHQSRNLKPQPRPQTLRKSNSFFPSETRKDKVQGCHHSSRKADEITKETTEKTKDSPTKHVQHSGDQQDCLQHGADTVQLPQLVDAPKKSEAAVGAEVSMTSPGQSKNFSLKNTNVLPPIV

AKT3 = AKT3 (Homo sapiens, UniProt Q9Y243); experiment: biochemical; conditions: read-out: % enzyme activity, 1 μM; Run 1, Run 2
PLK2 = PLK2 (Homo sapiens, UniProt Q9NYY3); conditions: 1 μM; Run 1, Run 2
MKK4 = target: T4, MKK4 (Homo sapiens, UniProt P45985); experiment: biochemical; conditions: read-out: % enzyme activity, 1 μM; Run 1, Run 2
T4 sequence (P45985 1-399): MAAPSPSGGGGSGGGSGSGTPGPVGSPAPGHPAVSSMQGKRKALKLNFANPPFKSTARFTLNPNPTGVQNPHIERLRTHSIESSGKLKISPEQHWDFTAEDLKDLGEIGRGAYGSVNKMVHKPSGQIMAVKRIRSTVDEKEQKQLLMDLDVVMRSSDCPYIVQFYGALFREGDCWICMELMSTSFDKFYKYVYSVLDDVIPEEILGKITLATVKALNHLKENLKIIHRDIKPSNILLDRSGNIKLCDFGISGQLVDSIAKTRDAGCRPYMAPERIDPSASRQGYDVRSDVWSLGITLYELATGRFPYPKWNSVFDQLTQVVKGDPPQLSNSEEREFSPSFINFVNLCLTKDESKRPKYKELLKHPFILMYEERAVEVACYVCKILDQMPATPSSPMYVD

T1 sequence (Q86Z02 whole entry): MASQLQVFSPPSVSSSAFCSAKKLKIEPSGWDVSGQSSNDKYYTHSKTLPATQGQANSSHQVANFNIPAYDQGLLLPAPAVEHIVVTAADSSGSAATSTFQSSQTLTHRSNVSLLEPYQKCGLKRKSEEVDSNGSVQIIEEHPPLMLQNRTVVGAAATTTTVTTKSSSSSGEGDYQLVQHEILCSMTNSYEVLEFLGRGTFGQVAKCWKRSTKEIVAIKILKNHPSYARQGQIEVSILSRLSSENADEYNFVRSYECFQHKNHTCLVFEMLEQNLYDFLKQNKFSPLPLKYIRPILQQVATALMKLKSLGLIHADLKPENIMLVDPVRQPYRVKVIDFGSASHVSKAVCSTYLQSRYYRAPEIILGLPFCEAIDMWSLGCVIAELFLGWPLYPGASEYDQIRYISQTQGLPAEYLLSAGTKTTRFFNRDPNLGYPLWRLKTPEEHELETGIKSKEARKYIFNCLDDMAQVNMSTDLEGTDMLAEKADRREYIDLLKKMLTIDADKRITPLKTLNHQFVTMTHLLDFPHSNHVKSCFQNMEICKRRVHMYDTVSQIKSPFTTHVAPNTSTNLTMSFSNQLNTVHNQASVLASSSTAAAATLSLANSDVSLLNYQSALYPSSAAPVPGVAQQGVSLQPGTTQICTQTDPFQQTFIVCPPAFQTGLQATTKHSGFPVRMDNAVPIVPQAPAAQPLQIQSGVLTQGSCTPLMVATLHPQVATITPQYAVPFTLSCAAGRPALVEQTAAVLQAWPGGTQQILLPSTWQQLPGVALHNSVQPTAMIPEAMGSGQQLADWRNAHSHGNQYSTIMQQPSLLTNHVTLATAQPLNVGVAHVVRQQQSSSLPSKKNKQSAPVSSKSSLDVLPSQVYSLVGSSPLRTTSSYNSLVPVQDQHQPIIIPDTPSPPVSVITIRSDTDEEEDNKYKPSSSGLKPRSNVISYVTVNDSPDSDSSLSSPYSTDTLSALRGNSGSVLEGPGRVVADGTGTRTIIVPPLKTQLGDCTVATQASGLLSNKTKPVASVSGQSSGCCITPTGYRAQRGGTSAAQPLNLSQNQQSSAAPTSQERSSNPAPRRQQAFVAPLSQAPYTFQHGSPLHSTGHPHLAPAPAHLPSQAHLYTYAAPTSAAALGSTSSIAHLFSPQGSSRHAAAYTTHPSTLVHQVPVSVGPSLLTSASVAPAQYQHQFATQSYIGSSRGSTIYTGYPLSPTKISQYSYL
Sequence of OSR1/OXSR1 (O95747 whole entry): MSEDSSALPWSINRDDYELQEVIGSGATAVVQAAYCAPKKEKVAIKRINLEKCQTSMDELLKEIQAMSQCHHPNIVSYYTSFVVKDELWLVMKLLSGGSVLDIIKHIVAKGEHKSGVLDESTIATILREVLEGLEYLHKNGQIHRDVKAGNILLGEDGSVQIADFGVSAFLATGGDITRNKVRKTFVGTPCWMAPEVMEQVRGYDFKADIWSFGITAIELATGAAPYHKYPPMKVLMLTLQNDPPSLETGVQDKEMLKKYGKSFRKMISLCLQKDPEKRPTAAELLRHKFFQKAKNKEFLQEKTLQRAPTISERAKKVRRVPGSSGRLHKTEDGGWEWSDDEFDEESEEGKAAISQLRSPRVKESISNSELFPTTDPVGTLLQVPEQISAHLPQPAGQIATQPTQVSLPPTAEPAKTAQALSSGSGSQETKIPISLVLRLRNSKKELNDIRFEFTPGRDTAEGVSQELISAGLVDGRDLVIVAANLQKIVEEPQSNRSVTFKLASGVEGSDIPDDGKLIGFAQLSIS
Sequence of SRPK2 (P78362 whole entry): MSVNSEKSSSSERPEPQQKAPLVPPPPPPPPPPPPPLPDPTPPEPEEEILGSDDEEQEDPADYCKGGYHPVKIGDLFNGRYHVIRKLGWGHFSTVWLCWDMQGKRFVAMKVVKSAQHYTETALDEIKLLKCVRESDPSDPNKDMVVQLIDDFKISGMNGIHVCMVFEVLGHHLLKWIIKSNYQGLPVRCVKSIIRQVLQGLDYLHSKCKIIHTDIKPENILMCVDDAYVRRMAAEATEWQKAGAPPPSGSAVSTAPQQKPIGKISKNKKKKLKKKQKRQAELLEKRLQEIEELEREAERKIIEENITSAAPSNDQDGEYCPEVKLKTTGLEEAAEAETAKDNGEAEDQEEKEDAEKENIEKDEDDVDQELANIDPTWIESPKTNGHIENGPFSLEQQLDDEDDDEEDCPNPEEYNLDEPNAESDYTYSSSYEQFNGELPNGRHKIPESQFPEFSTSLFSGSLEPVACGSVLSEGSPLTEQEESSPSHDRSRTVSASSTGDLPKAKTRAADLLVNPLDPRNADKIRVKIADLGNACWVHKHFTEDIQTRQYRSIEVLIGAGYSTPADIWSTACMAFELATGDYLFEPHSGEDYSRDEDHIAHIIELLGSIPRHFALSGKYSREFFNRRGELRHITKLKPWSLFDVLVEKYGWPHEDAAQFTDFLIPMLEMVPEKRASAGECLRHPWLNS
Sequence of TTBK1 (Q5TCY1 whole entry): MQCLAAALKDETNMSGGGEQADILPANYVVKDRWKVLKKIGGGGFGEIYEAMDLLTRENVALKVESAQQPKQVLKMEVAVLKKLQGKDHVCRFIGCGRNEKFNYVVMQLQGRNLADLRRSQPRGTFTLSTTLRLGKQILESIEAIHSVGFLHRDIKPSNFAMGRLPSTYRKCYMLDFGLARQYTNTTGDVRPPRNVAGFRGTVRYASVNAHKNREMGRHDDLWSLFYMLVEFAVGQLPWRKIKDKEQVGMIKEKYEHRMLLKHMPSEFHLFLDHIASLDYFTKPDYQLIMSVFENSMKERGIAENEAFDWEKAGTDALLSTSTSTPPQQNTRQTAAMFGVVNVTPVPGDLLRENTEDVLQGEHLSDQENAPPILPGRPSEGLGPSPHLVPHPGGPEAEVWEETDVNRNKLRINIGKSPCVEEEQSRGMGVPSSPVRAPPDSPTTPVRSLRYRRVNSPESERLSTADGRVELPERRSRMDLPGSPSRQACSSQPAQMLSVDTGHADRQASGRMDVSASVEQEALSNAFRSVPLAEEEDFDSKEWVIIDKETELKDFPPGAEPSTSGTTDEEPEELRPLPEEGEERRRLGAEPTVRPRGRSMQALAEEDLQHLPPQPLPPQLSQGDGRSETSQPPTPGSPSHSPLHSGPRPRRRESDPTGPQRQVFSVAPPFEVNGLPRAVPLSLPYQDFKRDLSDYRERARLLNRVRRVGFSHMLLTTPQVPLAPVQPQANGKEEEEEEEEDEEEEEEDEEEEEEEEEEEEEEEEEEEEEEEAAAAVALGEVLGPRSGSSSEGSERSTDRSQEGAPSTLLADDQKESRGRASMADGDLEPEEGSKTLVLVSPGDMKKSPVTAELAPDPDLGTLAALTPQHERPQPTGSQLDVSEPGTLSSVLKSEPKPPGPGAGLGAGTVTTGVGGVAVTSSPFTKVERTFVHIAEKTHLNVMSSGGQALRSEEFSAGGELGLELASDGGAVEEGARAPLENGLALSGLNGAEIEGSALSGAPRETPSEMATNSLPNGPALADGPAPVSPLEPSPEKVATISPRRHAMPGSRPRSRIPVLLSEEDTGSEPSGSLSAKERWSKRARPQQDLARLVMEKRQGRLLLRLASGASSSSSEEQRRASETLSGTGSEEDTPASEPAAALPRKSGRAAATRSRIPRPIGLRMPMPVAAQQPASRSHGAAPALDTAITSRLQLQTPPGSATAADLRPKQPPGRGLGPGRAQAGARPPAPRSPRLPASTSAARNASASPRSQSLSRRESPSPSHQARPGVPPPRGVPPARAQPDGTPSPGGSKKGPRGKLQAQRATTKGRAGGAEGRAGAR
Sequence of STK33 (Q9BYT3 whole entry): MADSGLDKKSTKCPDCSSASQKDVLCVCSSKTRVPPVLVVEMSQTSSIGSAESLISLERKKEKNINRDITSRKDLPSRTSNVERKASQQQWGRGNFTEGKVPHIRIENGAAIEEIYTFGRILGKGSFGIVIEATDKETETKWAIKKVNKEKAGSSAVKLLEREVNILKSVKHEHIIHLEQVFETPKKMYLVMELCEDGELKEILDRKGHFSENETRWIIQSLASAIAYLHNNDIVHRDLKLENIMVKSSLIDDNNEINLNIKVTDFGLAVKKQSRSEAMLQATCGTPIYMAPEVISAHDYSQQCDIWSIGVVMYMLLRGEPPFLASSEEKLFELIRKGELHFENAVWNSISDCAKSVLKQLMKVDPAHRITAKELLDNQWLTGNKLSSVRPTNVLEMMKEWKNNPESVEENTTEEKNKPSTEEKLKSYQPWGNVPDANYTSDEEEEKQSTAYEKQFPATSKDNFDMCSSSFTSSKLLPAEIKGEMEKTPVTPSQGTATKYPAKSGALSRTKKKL
Sequence of AKT3 (Q9Y243 whole entry): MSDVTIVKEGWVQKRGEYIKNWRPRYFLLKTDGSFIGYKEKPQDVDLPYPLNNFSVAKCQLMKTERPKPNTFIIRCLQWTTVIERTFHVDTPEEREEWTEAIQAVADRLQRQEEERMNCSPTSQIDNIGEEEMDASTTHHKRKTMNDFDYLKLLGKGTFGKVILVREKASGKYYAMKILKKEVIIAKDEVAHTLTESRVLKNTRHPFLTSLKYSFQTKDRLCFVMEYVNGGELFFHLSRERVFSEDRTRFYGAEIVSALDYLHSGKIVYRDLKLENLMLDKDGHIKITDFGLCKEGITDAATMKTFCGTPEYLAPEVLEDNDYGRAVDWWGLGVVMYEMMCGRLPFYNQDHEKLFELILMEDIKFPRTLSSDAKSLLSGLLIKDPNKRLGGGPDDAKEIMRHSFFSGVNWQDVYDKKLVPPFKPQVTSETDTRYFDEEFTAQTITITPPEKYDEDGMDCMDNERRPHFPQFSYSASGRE

## COc1cc(-c2cncc(-c3ccc(N4CCN(C)CC4)cc3)c2C)cc(F)c1C(N)=O [Compound 26a, 2-Fluoro-6-methoxy-4-(4-methyl-5-(4-(4-methylpiperazin-1-yl)phenyl)pyridin-3-yl)benzamide]
DYRK1B
  % enzyme activity at 1 μM: 40.6% and 39.8%
SRPK2
  % enzyme activity: 94.13%
IRR/INSRR
  % enzyme activity: 99.85%
HIPK1 [1]
  remaining activity at 1 µM: 106%
PKCnu/PRKD3
  remaining activity at 1 µM: 82.2%
TTBK1
  % enzyme activity: 96.78%
PAK3
  remaining activity at 1 µM: 89.5%
FGFR2
  % enzyme activity: 95.46%
STK33
  % enzyme activity: 88.77%
HIPK1 [2]
  % enzyme activity: 102.36%
MLK3/MAP3K11
  remaining activity at 1 µM: 99.4%
OSR1/OXSR1
  % enzyme activity: 93.34%
DYRK4
  % enzyme activity: 102.49%
AKT3
  remaining activity at 1 µM: 95%
PLK2
  % enzyme activity: 97.24%
MKK4
  remaining activity at 1 µM: 101%

## COc1cc(-c2cncc(-c3ccc(N4C[C@@H](C)N(C)[C@@H](C)C4)cc3)c2C)cc(F)c1C(N)=O [Compound 26c, 2-Fluoro-6-methoxy-4-(4-methyl-5-(4-((3R,5S)-3,4,5-trimethylpiperazin-1-yl)phenyl)pyridin-3-yl)benzamide]
DYRK1B
  % enzyme activity at 1 μM: 59.2% and 58.5%
SRPK2
  % enzyme activity: 115.95%
IRR/INSRR
  % enzyme activity: 113.76%
HIPK1 [1]
  remaining activity at 1 µM: 99.9%
PKCnu/PRKD3
  remaining activity at 1 µM: 89%
TTBK1
  % enzyme activity: 98.52%
PAK3
  remaining activity at 1 µM: 125%
FGFR2
  % enzyme activity: 90.89%
STK33
  % enzyme activity: 96.94%
HIPK1 [2]
  % enzyme activity: 96.64%
MLK3/MAP3K11
  remaining activity at 1 µM: 96.7%
OSR1/OXSR1
  % enzyme activity: 94.75%
DYRK4
  % enzyme activity: 100.24%
AKT3
  remaining activity at 1 µM: 98.7%
PLK2
  % enzyme activity: 102.38%
MKK4
  remaining activity at 1 µM: 94.6%

From PMC8213057, “Targeting ALK2: An Open Science Approach to Developing Therapeutics for the Treatment of Diffuse Intrinsic Pontine Glioma” (Journal of Medicinal Chemistry, 2020)
